Experimental data published in patent US4138554A, “7-[D-α-(4-Hydroxy-1,5-naphthyridine-3-carboxamido)-α-phenyl (and p-hydroxyphenyl)acetamido]-3-carbamoyloxymethyl-3-cephem-4-carboxylic acids” (priority 1977, dated 1979).
Read-outs that look alike come from different tables or passages of the source.

Test system: Pseudomonas aeruginosa
Assay: MIC by agar dilution against 61 strains of Pseudomonas aeruginosa, secondary evaluation
Assay type: cell-based
Settings: for Mean % Relative Activity (SPBC = 100%): P. aerug. (61 strains); for MIC: Pseudomonas aeruginosa
Description: Minimum inhibitory concentrations (MIC) of BB-S520 were determined by serial two-fold agar dilution method using Steers' apparatus on Meuller-Hinton agar plate against 31 test organisms for the primary screening and also against 61 strains of Pseudomonas aeruginosa for the secondary evaluation. The results are shown in Table 1 and Table 2 along with those of BB-S514 and sulbenicillin.
Minimum inhibitory concentrations (MIC) of cephalosporins in the present study were determined by serial two-fold agar dilution method using Steers' apparatus on Mueller-Hinton agar plate against 31 test organisms for the primary screening and also against 61 strains of Pseudomonas aeruginosa for the secondary evaluation.

NC(=O)OCC1=C(C(=O)O)N2C(=O)C(NC(=O)[C@H](NC(=O)c3cnc4cccnc4c3O)c3ccccc3)[C@H]2SC1 (stereo partly drawn) [BB-S520, Sodium 7-[D-α-(4-hydroxy-1,5-naphthyridine-3-carboxamido)-α-phenylacetamido]-3-carbamoyloxymethyl-3-cephem-4-carboxylate]
Rel. Act. (SBPC=100%) (61 strains of Pseudomonas aeruginosa, Table 7): 1016% | Mean % Relative Activity (SPBC = 100%) (lot 1, Table 5): 714% | Mean % Relative Activity (SPBC = 100%) (lot 2, Table 5): 1016% | Mean % Relative Activity (Sulbenicillin = 100%) (Ps. aeruginosa (61 strains), from geometric means of MICs in Table 2): 714% | MIC (61 strains of Pseudomonas aeruginosa, Table 7, read-out: Geometric Mean of MIC): 2.4 µg/mL | MIC (BBRI Pa-No. 1, D15, Table 2, read-out: MIC): 12.5 µg/mL | MIC (BBRI Pa-No. 1, D15, Table 7, read-out: MIC): 6.3 µg/mL | MIC (BBRI Pa-No. 2, VA, Table 2, read-out: MIC): 3.1 µg/mL | MIC (BBRI Pa-No. 2, VA, Table 7, read-out: MIC): 3.1 µg/mL | MIC (BBRI Pa-No. 3, 1449VA, Table 2, read-out: MIC): 1.6 µg/mL | MIC (BBRI Pa-No. 3, 1449VA, Table 7, read-out: MIC): 0.8 µg/mL | MIC (BBRI Pa-No. 4, H9 D113, Table 2, read-out: MIC): 12.5 µg/mL | MIC (BBRI Pa-No. 4, H9 D113, Table 7, read-out: MIC): 1.6 µg/mL | MIC (BBRI Pa-No. 5, M4865KC, Table 2, read-out: MIC): 3.1 µg/mL | MIC (BBRI Pa-No. 5, N4865KC, Table 7, read-out: MIC): 0.8 µg/mL | MIC (BBRI Pa-No. 6, No. 5, Table 2, read-out: MIC): 25 µg/mL | MIC (BBRI Pa-No. 6, No. 5, Table 7, read-out: MIC): 12.5 µg/mL | MIC (BBRI Pa-No. 7, Table 2, read-out: MIC): 6.3 µg/mL | MIC (BBRI Pa-No. 7, Table 7, read-out: MIC): 3.1 µg/mL | MIC (BBRI Pa-No. 8, Table 2, read-out: MIC): 3.1 µg/mL | MIC (BBRI Pa-No. 8, Table 7, read-out: MIC): 3.1 µg/mL | MIC (BBRI Pa-No. 9, Yale, Table 2, read-out: MIC): 3.1 µg/mL | MIC (BBRI Pa-No. 9, Yale, Table 7, read-out: MIC): 1.6 µg/mL | MIC (BBRI Pa-No. 10, Table 2, read-out: MIC): 50 µg/mL | MIC (BBRI Pa-No. 10, Table 7, read-out: MIC): 25 µg/mL | MIC (BBRI Pa-No. 11, Table 2, read-out: MIC): 3.1 µg/mL | MIC (BBRI Pa-No. 11, Table 7, read-out: MIC): 3.1 µg/mL | MIC (BBRI Pa-No. 12, Table 2, read-out: MIC): 6.3 µg/mL | MIC (BBRI Pa-No. 12, Table 7, read-out: MIC): 3.1 µg/mL | MIC (BBRI Pa-No. 14, Table 2, read-out: MIC): 3.1 µg/mL | MIC (BBRI Pa-No. 14, Table 7, read-out: MIC): 0.8 µg/mL | MIC (BBRI Pa-No. 15, Table 2, read-out: MIC): 12.5 µg/mL | MIC (BBRI Pa-No. 15, Table 7, read-out: MIC): 6.3 µg/mL | MIC (BBRI Pa-No. 16, No. 130, Table 2, read-out: MIC): 0.8 µg/mL | MIC (BBRI Pa-No. 16, No. 130, Table 7, read-out: MIC): 0.4 µg/mL | MIC (BBRI Pa-No. 17, H6 D114, Table 2, read-out: MIC): 6.3 µg/mL | MIC (BBRI Pa-No. 17, H6 D114, Table 7, read-out: MIC): 3.1 µg/mL | MIC (BBRI Pa-No. 18, H8 D121, Table 2, read-out: MIC): 6.3 µg/mL | MIC (BBRI Pa-No. 18, H8 D121, Table 7, read-out: MIC): 1.6 µg/mL | MIC (BBRI Pa-No. 19, Table 2, read-out: MIC): 1.6 µg/mL | MIC (BBRI Pa-No. 19, Table 7, read-out: MIC): 0.8 µg/mL | MIC (BBRI Pa-No. 20, Table 2, read-out: MIC): 3.1 µg/mL | MIC (BBRI Pa-No. 20, Table 7, read-out: MIC): 3.1 µg/mL | MIC (BBRI Pa-No. 21, Table 2, read-out: MIC): 3.1 µg/mL | MIC (BBRI Pa-No. 21, Table 7, read-out: MIC): 3.1 µg/mL | MIC (BBRI Pa-No. 23, Table 2, read-out: MIC): 6.3 µg/mL | MIC (BBRI Pa-No. 23, Table 7, read-out: MIC): 1.6 µg/mL | MIC (BBRI Pa-No. 24, Table 2, read-out: MIC): 50 µg/mL | MIC (BBRI Pa-No. 24, Table 7, read-out: MIC): 25 µg/mL | MIC (BBRI Pa-No. 25, Table 2, read-out: MIC): 1.6 µg/mL | MIC (BBRI Pa-No. 25, Table 7, read-out: MIC): 0.8 µg/mL | MIC (BBRI Pa-No. 26, Ps32, Table 2, read-out: MIC): 3.1 µg/mL | MIC (BBRI Pa-No. 26, Ps32, Table 7, read-out: MIC): 6.3 µg/mL | MIC (BBRI Pa-No. 28, CPH1C527/72, Table 7, read-out: MIC): 3.1 µg/mL | MIC (BBRI Pa-No. 28, CPH10527/72, Table 2, read-out: MIC): 6.3 µg/mL | MIC (BBRI Pa-No. 29, D122, Table 2, read-out: MIC): 1.6 µg/mL | MIC (BBRI Pa-No. 29, D122, Table 7, read-out: MIC): 1.6 µg/mL | MIC (BBRI Pa-No. 30, Table 2, read-out: MIC): 3.1 µg/mL | MIC (BBRI Pa-No. 30, Table 7, read-out: MIC): 1.6 µg/mL | MIC (BBRI Pa-No. 31, Table 2, read-out: MIC): 1.6 µg/mL | MIC (BBRI Pa-No. 31, Table 7, read-out: MIC): 0.8 µg/mL | MIC (BBRI Pa-No. 32, Table 2, read-out: MIC): 3.1 µg/mL | MIC (BBRI Pa-No. 32, Table 7, read-out: MIC): 1.6 µg/mL | MIC (BBRI Pa-No. 33, Table 2, read-out: MIC): 12.5 µg/mL | MIC (BBRI Pa-No. 33, Table 7, read-out: MIC): 1.6 µg/mL | MIC (BBRI Pa-No. 34, Table 2, read-out: MIC): 3.1 µg/mL | MIC (BBRI Pa-No. 34, Table 7, read-out: MIC): 1.6 µg/mL
